≈ marks a conversion by molar mass, not a printed value.
Columns and labels:
Klebsiella pneumoniae = assay: microbe, parasite or virus in culture; settings: ATCC 43816, 20 h
Description: Antimicrobial activity against Klebsiella pneumoniae ATCC 43816 assessed as reduction in bacterial growth incubated for 20 hrs by broth microdilution analysis

Staphylococcus aureus [1] = assay: microbe, parasite or virus in culture; settings: NCTC 13616, 20 h
Description: Antibacterial activity against methicillin-resistant Staphylococcus aureus NCTC 13616 assessed as reduction in bacterial growth incubated for 20 hrs by broth micro-dilution method

Bacillus subtilis = assay: microbe, parasite or virus in culture; settings: ATCC 6633, 20 h
Description: Antibacterial activity against Bacillus subtilis ATCC 6633 assessed as bacterial growth inhibition measured for 20 hrs by micro-broth dilution method

Escherichia coli [2] = assay: microbe, parasite or virus in culture; settings: ATCC 8739, 20 h
Description: Antimicrobial activity against Escherichia coli ATCC 8739 assessed as reduction in bacterial growth incubated for 20 hrs by broth microdilution analysis

Bacillus cereus [3] = assay: microbe, parasite or virus in culture; settings: ATCC 14579
Description: Antibacterial activity against Bacillus cereus ATCC 14579 assessed as reduction in bacterial growth incubated for 18 to 24 hrs by broth microdilution method

Proteus vulgaris = assay: microbe, parasite or virus in culture; settings: ATCC 13315, 24 h
Description: Antimicrobial activity against Proteus vulgaris ATCC 13315 assessed as microbial growth inhibition incubated for 24 hrs by broth microdilution method

[4] = Antioxidant activity assessed as DPPH radical scavenging activity incubated for 30 mins
[5] = molecular target: T1, Prostaglandin G/H synthase 2 (Homo sapiens, UniProt P35354); assay: Inhibition of human recombinant COX-2
T1 sequence (P35354 whole entry): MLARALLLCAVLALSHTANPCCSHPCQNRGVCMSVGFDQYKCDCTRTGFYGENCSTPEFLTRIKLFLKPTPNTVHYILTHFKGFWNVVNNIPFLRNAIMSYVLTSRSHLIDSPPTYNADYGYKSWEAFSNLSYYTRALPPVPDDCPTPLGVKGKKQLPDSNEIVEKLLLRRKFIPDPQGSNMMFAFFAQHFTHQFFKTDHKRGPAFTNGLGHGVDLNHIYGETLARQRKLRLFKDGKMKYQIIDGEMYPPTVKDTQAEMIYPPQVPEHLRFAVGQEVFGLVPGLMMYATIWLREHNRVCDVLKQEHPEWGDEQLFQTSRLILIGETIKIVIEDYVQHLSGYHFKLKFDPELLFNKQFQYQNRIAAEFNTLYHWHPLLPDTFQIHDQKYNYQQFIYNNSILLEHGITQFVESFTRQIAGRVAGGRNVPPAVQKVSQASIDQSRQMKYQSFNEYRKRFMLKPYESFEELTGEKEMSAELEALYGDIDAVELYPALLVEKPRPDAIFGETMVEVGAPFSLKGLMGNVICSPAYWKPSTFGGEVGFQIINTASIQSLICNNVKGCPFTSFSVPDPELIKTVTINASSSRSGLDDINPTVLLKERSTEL

[6] = molecular target: T2, Prostaglandin G/H synthase 1 (Ovis aries, UniProt P05979); assay: Inhibition of ovine COX-1
T2 sequence (P05979 whole entry): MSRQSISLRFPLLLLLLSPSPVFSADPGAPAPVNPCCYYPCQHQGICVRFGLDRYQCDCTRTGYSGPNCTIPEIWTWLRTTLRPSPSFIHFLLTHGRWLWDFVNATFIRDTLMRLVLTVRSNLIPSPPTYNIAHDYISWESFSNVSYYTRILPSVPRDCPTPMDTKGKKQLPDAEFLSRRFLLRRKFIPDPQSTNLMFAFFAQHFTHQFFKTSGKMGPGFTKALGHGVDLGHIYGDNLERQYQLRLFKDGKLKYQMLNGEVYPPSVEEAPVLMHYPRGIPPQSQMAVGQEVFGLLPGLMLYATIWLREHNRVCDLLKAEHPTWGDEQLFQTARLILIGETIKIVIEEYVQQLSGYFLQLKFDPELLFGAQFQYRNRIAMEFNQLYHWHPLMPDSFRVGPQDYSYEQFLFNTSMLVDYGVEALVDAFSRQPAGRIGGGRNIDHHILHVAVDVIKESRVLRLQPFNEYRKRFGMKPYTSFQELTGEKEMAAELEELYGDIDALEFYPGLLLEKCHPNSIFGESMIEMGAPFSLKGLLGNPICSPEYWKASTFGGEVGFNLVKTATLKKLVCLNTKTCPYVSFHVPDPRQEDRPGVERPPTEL

Bacillus cereus [7] = assay: microbe, parasite or virus in culture; settings: ATTC 10876
Description: Antibacterial activity against Bacillus cereus ATTC 10876 assessed as reduction in bacterial growth incubated for 18 to 24 hrs by broth microdilution method

Pseudomonas aeruginosa = assay: microbe, parasite or virus in culture; settings: ATCC 27853
Description: Antimicrobial activity against Pseudomonas aeruginosa ATCC 27853 assessed as inhibition of microbial growth by CLSI protocol based two-fold serial broth microdilution method

Enterococcus faecalis [8] = assay: microbe, parasite or virus in culture; settings: ATCC 29212, 24 h
Description: Antibacterial activity against Enterococcus faecalis ATCC 29212 assessed as inhibition of bacterial growth incubated for 24 hrs by broth microdilution method

Enterococcus faecalis [9] = assay: microbe, parasite or virus in culture; settings: ATTC 29212, 24 h
Description: Antibacterial activity against Enterococcus faecalis ATCC 29212 assessed as reduction in bacterial growth incubated for 24 hrs by CLSI protocol based assay

Proteus mirabilis = assay: microbe, parasite or virus in culture; settings: ATCC 35659
Description: Antibacterial activity against Proteus mirabilis ATCC 35659 assessed as reduction in bacterial growth incubated for 18 to 24 hrs by broth microdilution method

Staphylococcus aureus [10] = assay: microbe, parasite or virus in culture; settings: ATCC 25923
Description: Antibacterial activity against Staphylococcus aureus ATCC 25923 assessed as reduction in bacterial growth incubated for 18 to 24 hrs by broth microdilution method

Escherichia coli [11] = assay: microbe, parasite or virus in culture; settings: ATCC 25922
Description: Antibacterial activity against Escherichia coli ATCC 25922 assessed as reduction in bacterial growth incubated for 18 to 24 hrs by broth microdilution method

Compound | IC50 [5] [µM] | IC50 [6] [µM] | MIC (Klebsiella pneumoniae) [µg/mL] | MIC (Staphylococcus aureus [1]) [µg/mL] | MIC (Bacillus subtilis) [µg/mL] | MIC (Escherichia coli [2]) [µg/mL] | MIC (Bacillus cereus [3]) [µg/mL] | MIC (Proteus vulgaris) [µg/mL] | other results
CC(C)Cc1ccc(C(C)C(=O)c2ccc(OCc3cn(-c4ccccc4)nn3)cc2O)cc1 (centres undefined) | – | – | 12 (≈ 26.3 µM) | 12 (≈ 26.3 µM) | 12 (≈ 26.3 µM) | 12 (≈ 26.3 µM) | 12 (≈ 26.3 µM) | 12 (≈ 26.3 µM) | –
CCCCCCn1cc(COc2ccc(C(=O)C(C)c3ccc(CC(C)C)cc3)c(O)c2)nn1 (centres undefined) | – | – | 12 (≈ 25.9 µM) | 12 (≈ 25.9 µM) | 12 (≈ 25.9 µM) | 12 (≈ 25.9 µM) | 12 (≈ 25.9 µM) | 12 (≈ 25.9 µM) | –
O=c1cc(-c2ccc(OCCCn3cc(-c4cc5ccccc5c5ccccc45)nn3)cc2)oc2ccccc12 | – | – | – | – | – | – | – | – | IC50 [4]: 28.8 µM
O=C(/C=C/C=C/c1ccccc1)c1cc(-n2cc(CN3C(=O)C(=O)c4ccccc43)nn2)ccc1O | 0.037 | 7.4 | – | – | – | – | – | – | –
CC(C)Cc1ccc(C(C)C(=O)c2ccc(OCc3cn(-c4ccc(Br)cc4)nn3)cc2O)cc1 (centres undefined) | – | – | 12 (≈ 22.5 µM) | 12 (≈ 22.5 µM) | 12 (≈ 22.5 µM) | 12 (≈ 22.5 µM) | 12 (≈ 22.5 µM) | 12 (≈ 22.5 µM) | –
CCCCCCCCCCCCn1nnc(-c2n[nH]c(=S)n2N)c1-c1n[nH]c(=S)n1N | – | – | – | – | – | – | – | – | MIC (Bacillus cereus [7]): 1 µM (≈ 0.466 µg/mL); MIC (Pseudomonas aeruginosa): 1 µM (≈ 0.466 µg/mL); MIC (Enterococcus faecalis [8]): 1 µM (≈ 0.466 µg/mL); MIC (Enterococcus faecalis [9]): 1 µM (≈ 0.466 µg/mL); MIC (Proteus mirabilis): 1 µM (≈ 0.466 µg/mL); MIC (Staphylococcus aureus [10]): 1 µM (≈ 0.466 µg/mL); MIC (Escherichia coli [11]): 1 µM (≈ 0.466 µg/mL)
CC(C)Cc1ccc(C(C)C(=O)c2ccc(OCc3cn(-c4ccc(Cl)cc4)nn3)cc2O)cc1 (centres undefined) | – | – | 12 (≈ 24.5 µM) | 12 (≈ 24.5 µM) | 12 (≈ 24.5 µM) | 12 (≈ 24.5 µM) | 12 (≈ 24.5 µM) | 12 (≈ 24.5 µM) | –
CCCCCCCCCCCCCCn1nnc(-c2n[nH]c(=S)n2N)c1-c1n[nH]c(=S)n1N | – | – | – | – | – | – | – | – | MIC (Bacillus cereus [7]): 1 µM (≈ 0.494 µg/mL); MIC (Pseudomonas aeruginosa): 1 µM (≈ 0.494 µg/mL); MIC (Enterococcus faecalis [8]): 1 µM (≈ 0.494 µg/mL); MIC (Enterococcus faecalis [9]): 1 µM (≈ 0.494 µg/mL); MIC (Proteus mirabilis): 1 µM (≈ 0.494 µg/mL); MIC (Staphylococcus aureus [10]): 1 µM (≈ 0.494 µg/mL); MIC (Escherichia coli [11]): 1 µM (≈ 0.494 µg/mL)
CCCCc1cn(CCCOc2ccc(-c3cc(=O)c4ccccc4o3)cc2)nn1 | – | – | – | – | – | – | – | – | IC50 [4]: 29.7 µM
CCCCCCCCCCCCn1cc(COc2ccc(C(=O)C(C)c3ccc(CC(C)C)cc3)c(O)c2)nn1 (centres undefined) | – | – | 12 (≈ 21.9 µM) | 12 (≈ 21.9 µM) | 12 (≈ 21.9 µM) | 12 (≈ 21.9 µM) | 12 (≈ 21.9 µM) | 12 (≈ 21.9 µM) | –
CC(C)Cc1ccc(C(C)C(=O)c2ccc(OCc3cn(-c4ccc([N+](=O)[O-])cc4)nn3)cc2O)cc1 (centres undefined) | – | – | 12 (≈ 24 µM) | 12 (≈ 24 µM) | 12 (≈ 24 µM) | 12 (≈ 24 µM) | 12 (≈ 24 µM) | 12 (≈ 24 µM) | –
O=C(/C=C/c1ccc(Br)cc1)c1cc(-n2cc(CN3C(=O)C(=O)c4ccccc43)nn2)ccc1O | 0.037 | 7.4 | – | – | – | – | – | – | –
CC(C)Cc1ccc(C(C)C(=O)c2ccc(OCc3cn(-c4ccccc4Cl)nn3)cc2O)cc1 (centres undefined) | – | – | 12 (≈ 24.5 µM) | 12 (≈ 24.5 µM) | 12 (≈ 24.5 µM) | 12 (≈ 24.5 µM) | 12 (≈ 24.5 µM) | 12 (≈ 24.5 µM) | –

Now from value to compound, other results behind:

IC50 [5] [µM] | IC50 [6] [µM] | Compound | MIC (Klebsiella pneumoniae) [µg/mL] | MIC (Staphylococcus aureus [1]) [µg/mL] | MIC (Bacillus subtilis) [µg/mL] | MIC (Escherichia coli [2]) [µg/mL] | MIC (Bacillus cereus [3]) [µg/mL] | MIC (Proteus vulgaris) [µg/mL] | other results
0.037 | 7.4 | COc1ccc(/C=C/C(=O)c2cc(-n3cc(-c4ccccc4)nn3)ccc2O)cc1OC | – | – | – | – | – | – | –
0.037 | 7.4 | O=C(/C=C/c1ccccc1)c1cc(-n2cc(CN3C(=O)C(=O)c4ccccc43)nn2)ccc1O | – | – | – | – | – | – | –
0.037 | 7.4 | Cc1ccc(/C=C/C(=O)c2cc(-n3cc(-c4ccccc4)nn3)ccc2O)cc1 | – | – | – | – | – | – | –
0.037 | 7.4 | COc1ccc(/C=C/C(=O)c2cc(-n3cc(CN4C(=O)C(=O)c5ccccc54)nn3)ccc2O)cc1OC | – | – | – | – | – | – | –
0.037 | 7.4 | O=C(/C=C/c1ccccc1)c1cc(-n2cc(-c3ccccc3)nn2)ccc1O | – | – | – | – | – | – | –
0.037 | 7.4 | CN(C)C(=O)c1ccc(/C=C/C(=O)c2cc(-n3cc(-c4ccccc4)nn3)ccc2O)cc1 | – | – | – | – | – | – | –
